Reference: patent US20060069132A1, “Azolecarboxamide herbicides” (priority 2004, published 2006)

What was measured:
velvetleaf = experiment: Test B pre-/postemergence herbicide test; format: in vivo, Abutilon theophrasti; conditions: for Velvetleaf plant response rating: postemergence, visual rating
Method in brief: (§1)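 Evaluation is visual, comparing treated with control plants on a scale where 0 means no effect and 100 means full control. Treatments were preemergence, or postemergence on seedlings 2–18 cm tall, and held 13–15 days in the greenhouse.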

blackgrass = experiment: Test B postemergence herbicide test; format: in vivo, Alopecurus myosuroides; conditions: scale 0 (no effect) to 100 (complete control); for Plant response rating, Blackgrass: Postemergence, 500 g ai/ha, visual rating after 13 to 15 days; for Blackgrass plant response rating: postemergence, 125 g ai/ha, visual rating
Method in brief: (§2)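 Treated at 2-leaf (paddy) or 1–4-leaf, 2–18 cm (postemergence); greenhouse 13–15 d; visual score vs control, 0 none to 100 complete control; dash = not tested.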

giant foxtail = experiment: Test B pre-/postemergence herbicide test; format: in vivo, Setaria faberi; conditions: for Foxtail, Giant plant response rating: postemergence, visual rating
Method in brief: as §1

morningglory = experiment: Test B pre-/postemergence herbicide test; format: in vivo, Ipomoea coccinea
Method in brief: (§3)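 Herbicidal effect was judged by eye on a 0–100 scale after plants stood 13 to 15 days in the greenhouse following pre- or postemergence treatment with surfactant-containing formulations.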

[1] = tested on: small flower umbrella sedge; experiment: Test B flooded paddy test; format: in vivo, Cyperus difformis; conditions: 1000 g ai/ha, visual rating, scale 0 to 100 (0 no effect, 100 complete control), 13 to 15 days
Method in brief: as §2

barnyardgrass [2] = experiment: Test B pre-/postemergence herbicide test; format: in vivo, Echinochloa crus-galli; conditions: for Barnyardgrass plant response rating: postemergence, visual rating
Method in brief: as §3

rice = experiment: Test B flooded paddy test; format: in vivo, Oryza sativa; conditions: 1000 g ai/ha, visual rating, scale 0 to 100 (0 no effect, 100 complete control), 13 to 15 days
Method in brief: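 Each value is a visual 0–100 response rating taken against controls 13 to 15 days after treatment in the greenhouse. Plants received formulated chemical postemergence at the 1- to 4-leaf stage or, in flooded paddy, at the 2-leaf stage.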

lambsquarters = experiment: Test B pre-/postemergence herbicide test; format: in vivo, Chenopodium album; conditions: for Lambsquarters plant response rating: postemergence, visual rating
Method in brief: as §1

barnyardgrass [3] = experiment: Test B flooded paddy test; format: in vivo, Echinochloa crus-galli; conditions: 1000 g ai/ha, visual rating, scale 0 to 100 (0 no effect, 100 complete control), 13 to 15 days
Method in brief: as §2

wild oat = experiment: Test B postemergence herbicide test; format: in vivo, Avena fatua; conditions: scale 0 (no effect) to 100 (complete control); for Plant response rating, Oat, Wild: Postemergence, 500 g ai/ha, visual rating after 13 to 15 days; for Oat, Wild plant response rating: postemergence, 125 g ai/ha, visual rating
Method in brief: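 After treating 2-leaf paddy plants or 2–18 cm postemergence plants (1 to 4 leaves) with formulated chemical, researchers kept them in a greenhouse for 13–15 days. Effects were judged visually versus controls: 0 indicates none, 100 total control.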

corn = experiment: Test B pre-/postemergence herbicide test; format: in vivo, Zea mays
Method in brief: as §1

ducksalad = experiment: Test B flooded paddy test; format: in vivo, Heteranthera limosa; conditions: 1000 g ai/ha, visual rating, scale 0 to 100 (0 no effect, 100 complete control), 13 to 15 days
Method in brief: as §2

large crabgrass = experiment: Test B pre-/postemergence herbicide test; format: in vivo, Digitaria sanguinalis; conditions: for Crabgrass, Large plant response rating: postemergence, visual rating
Method in brief: as §1

cocklebur = experiment: Test B pre-/postemergence herbicide test; format: in vivo, Xanthium strumarium; conditions: for Cocklebur plant response rating: postemergence, visual rating
Method in brief: as §3

pigweed = experiment: Test B pre-/postemergence herbicide test; format: in vivo, Amaranthus retroflexus; conditions: for Pigweed plant response rating: postemergence, visual rating
Method in brief: as §1

[4] = 500 g ai/ha, visual rating 0-100, 0 no effect, 100 complete control, preemergence
[5] = Postemergence, 500 g ai/ha, visual rating after 13 to 15 days, scale 0 (no effect) to 100 (complete control)
[6] = 125 g ai/ha, scale 0 (no effect) to 100 (complete control)
[7] = preemergence, 125 g ai/ha, 0 to 100 scale, 0 is no effect, 100 is complete control
[8] = postemergence, 125 g ai/ha, visual rating, scale 0 (no effect) to 100 (complete control)

C=CCn1nc(C(C)(C)C)cc1C(=O)Nc1cccc(C(C)=NO)c1 [Compound 117]
10: Plant response rating, Blackgrass (blackgrass) | Foxtail, Giant plant response rating (giant foxtail; [6]) | Oat, Wild plant response rating (wild oat) | Crabgrass, Large plant response rating (large crabgrass; [6])
50: Plant response rating, Velvetleaf (velvetleaf; [5]) | Rice plant response rating (rice) | Pigweed plant response rating (pigweed; [6])
80: Plant response rating, Foxtail, Giant (giant foxtail; [4]) | Ducksalad plant response rating (ducksalad)
60: Plant response rating, Velvetleaf (velvetleaf; [7]) | Plant response rating, Morningglory (morningglory; [4]) | Plant response rating, Barnyardgrass (barnyardgrass [2]; [7]) | Lambsquarters plant response rating (lambsquarters; [6]) | Plant response rating, Pigweed (pigweed; [7])
90: Sedge, Umbrella plant response rating [1] | Plant response rating, Barnyardgrass (barnyardgrass [2]; [4]) | Plant response rating, Lambsquarters (lambsquarters; [5]) | Plant response rating, Lambsquarters (lambsquarters; [7]) | Plant response rating, Crabgrass, Large (large crabgrass; [7]) | Plant response rating, Cocklebur (cocklebur; [5]) | Plant response rating, Pigweed (pigweed; [4]) | Plant response rating, Pigweed (pigweed; [5])
30: Plant response rating, Barnyardgrass (barnyardgrass [2]; [5]) | Plant response rating, Corn (corn; [4]) | Plant response rating, Crabgrass, Large (large crabgrass; [5]) | Plant response rating, Cocklebur (cocklebur; [4]) | Cocklebur plant response rating (cocklebur; [6])
20: Velvetleaf plant response rating (velvetleaf; [6]) | Plant response rating, Foxtail, Giant (giant foxtail; [5]) | Plant response rating, Foxtail, Giant (giant foxtail; [7]) | Barnyardgrass plant response rating (barnyardgrass [2]; [6]) | Plant response rating, Oat, Wild (wild oat) | Plant response rating, Cocklebur (cocklebur; [7])
100: Plant response rating, Lambsquarters (lambsquarters; [4]) | Plant response rating, Crabgrass, Large (large crabgrass; [4])
70: Plant response rating, Velvetleaf (velvetleaf; [4]) | Barnyardgrass plant response rating (barnyardgrass [3])
0: Blackgrass plant response rating (blackgrass) | Plant response rating, Corn (corn; [7])

CCC(=NO)c1cccc(NC(=O)c2cc(C(C)(C)C)nn2C)c1 [Compound 118]
70: Plant response rating, Foxtail, Giant (giant foxtail; [4]) | Plant response rating, Morningglory (morningglory; [5]) | Cocklebur plant response rating (cocklebur; [6])
20: Velvetleaf plant response rating (velvetleaf; [6]) | Plant response rating, Foxtail, Giant (giant foxtail; [5]) | Morningglory plant response rating (morningglory; [8]) | Plant response rating, Lambsquarters (lambsquarters; [5]) | Plant response rating, Oat, Wild (wild oat) | Oat, Wild plant response rating (wild oat) | Corn plant response rating (corn; [8]) | Crabgrass, Large plant response rating (large crabgrass; [6])
40: Plant response rating, Velvetleaf (velvetleaf; [5]) | Plant response rating, Corn (corn; [5])
90: Plant response rating, Barnyardgrass (barnyardgrass [2]; [4]) | Plant response rating, Crabgrass, Large (large crabgrass; [7]) | Plant response rating, Cocklebur (cocklebur; [5]) | Plant response rating, Pigweed (pigweed; [4])
100: Plant response rating, Crabgrass, Large (large crabgrass; [4]) | Plant response rating, Pigweed (pigweed; [5])
10: Plant response rating, Velvetleaf (velvetleaf; [4]) | Plant response rating, Blackgrass (blackgrass) | Foxtail, Giant plant response rating (giant foxtail; [6]) | Plant response rating, Foxtail, Giant (giant foxtail; [7]) | Plant response rating, Morningglory (morningglory; [7]) | Barnyardgrass plant response rating (barnyardgrass [2]; [6]) | Plant response rating, Barnyardgrass (barnyardgrass [2]; [7]) | Plant response rating, Corn (corn; [4]) | Plant response rating, Cocklebur (cocklebur; [4])
80: Sedge, Umbrella plant response rating [1] | Rice plant response rating (rice) | Ducksalad plant response rating (ducksalad)
0: Plant response rating, Velvetleaf (velvetleaf; [7]) | Blackgrass plant response rating (blackgrass) | Plant response rating, Lambsquarters (lambsquarters; [4]) | Lambsquarters plant response rating (lambsquarters; [6]) | Plant response rating, Lambsquarters (lambsquarters; [7]) | Plant response rating, Corn (corn; [7]) | Plant response rating, Cocklebur (cocklebur; [7])
50: Barnyardgrass plant response rating (barnyardgrass [3])
60: Plant response rating, Morningglory (morningglory; [4]) | Pigweed plant response rating (pigweed; [6]) | Plant response rating, Pigweed (pigweed; [7])
30: Plant response rating, Barnyardgrass (barnyardgrass [2]; [5]) | Plant response rating, Crabgrass, Large (large crabgrass; [5])
